Article PMC4229968, “The Inhibition of the Components from Shengmai Injection towards UDP-Glucuronosyltransferase” (Evidence-based Complementary and Alternative Medicine : eCAM, 2014)

What was measured:
Type in all cases: in vitro ADME
UGT1A7 = target: T1, UGT1A7 (Homo sapiens, UniProt Q9HAW7); experiment: Recombinant UGT1A7-catalyzed 4-MU glucuronidation inhibition; settings: pH 7.4, probe 4-methylumbelliferone (4-MU), UGT1A7, 100 μM of compound, 4-MU substrate, read-out: residual activity
T1 construct: purchased BD Gentest Corp. (Woburn, MA, USA); host or cells: baculovirus-infected insect cells
T1 sequence (Q9HAW7 26-530): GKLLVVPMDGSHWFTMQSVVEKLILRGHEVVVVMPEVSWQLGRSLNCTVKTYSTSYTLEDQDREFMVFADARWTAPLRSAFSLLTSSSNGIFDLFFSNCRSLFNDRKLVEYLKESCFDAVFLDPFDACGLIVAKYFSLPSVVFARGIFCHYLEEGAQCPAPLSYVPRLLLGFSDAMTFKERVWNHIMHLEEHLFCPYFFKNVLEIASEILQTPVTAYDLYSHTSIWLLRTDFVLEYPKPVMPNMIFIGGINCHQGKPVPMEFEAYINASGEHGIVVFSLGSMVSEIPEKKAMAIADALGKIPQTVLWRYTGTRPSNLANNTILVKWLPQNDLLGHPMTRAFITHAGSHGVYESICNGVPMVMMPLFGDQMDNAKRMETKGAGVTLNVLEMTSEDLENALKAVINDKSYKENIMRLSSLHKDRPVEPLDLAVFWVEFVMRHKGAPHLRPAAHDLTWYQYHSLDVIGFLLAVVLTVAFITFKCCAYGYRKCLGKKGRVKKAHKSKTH
Source text: (§1) 4-Methylumbelliferone (4-MU), 4-methylumbelliferone-β-D-glucuronide (4-MUG), Tris-HCl, 7-hydroxycoumarin, and uridine-5′-diphosphoglucuronic acid (UDPGA) (trisodium salt) were purchased from Sigma-Aldrich (St. Louis, MO). Recombinant human UGT isoforms (UGT1A1, UGT1A3, UGT1A4, UGT1A6, UGT1A7, UGT1A8, UGT1A9, UGT1A10, UGT2B4, UGT2B7, and UGT2B15) expressed in baculovirus-infected insect cells were obtained from BD Gentest Corp. (Woburn, MA, USA). Ophiopogonin D (OD), ophiopogonin D′ (OD′), methylophiopogonanone A (MA), methylophiopogonanone B (MB), and ruscorectal (RU) were purchased from Sichuan Weikeqi Biotechnology Company (Chengdu, Sichuan, China). The purity of these compounds was above 95%. All other reagents were of HPLC grade or of the highest grade commercially available.
(§2) 4-MU, the nonspecific probe substrate for all the UGT isoforms except UGT1A4, was used in the present study to initially screen the inhibition potential of maidong's components towards UGT isoforms as previously reported. In brief, the incubation system (total volume = 200 μL) consisted of recombinant UGTs, 5 mM UDPGA, 5 mM MgCl2, 50 mM Tris-HCl (pH = 7.4), and 4-MU in the absence or presence of different concentrations of maidong's components. The compounds were dissolved in DMSO, and the final concentration of DMSO was below 0.5% (v/v). The used incubation time and protein concentration were previously determined to ensure the reaction rate within the linear range. The 4-MU concentration was equal to known K m or S 50 values for each UGT isoform. After 5 min preincubation at 37°C, the incubation reaction was initiated via adding UDPGA to the mixture system. The reactions were quenched by adding 100 μL acetonitrile with 7-hydroxycoumarin (100 μM) as internal standard. Centrifuged at 20000 ×g for 10 min, an aliquot of supernatant was transferred to an autoinjector vial for HPLC analysis. The HPLC system (Shimadzu, Kyoto, Japan) contained a SCL-10A system controller, two LC-10AT pumps, a SIL-10A autoinjector, and a SPD-10AVP UV detector. Chromatographic separation was carried out using a C18 column (4.6 × 200 mm, 5 μm, Kromasil) at a flow rate of 1 mL/min and UV detector at 316 nm. The mobile phase consisted of acetonitrile (A) and H2O containing 0.5% (v/v) formic acid (B). The following gradient condition was used: 0–15 min, 95–40% B; 15–20 min, 10% B; 20–30 min, 95% B.

UGT1A10 = target: T2, UGT1A10 (Homo sapiens, UniProt Q9HAW8); experiment: Recombinant UGT1A10-catalyzed 4-MU glucuronidation inhibition; settings: for activity at 100 µM: UGT1A10, 100 μM of compound, 4-MU substrate, read-out: residual activity
T2 construct: purchased BD Gentest Corp. (Woburn, MA, USA); host or cells: baculovirus-infected insect cells
T2 sequence (Q9HAW8 26-530): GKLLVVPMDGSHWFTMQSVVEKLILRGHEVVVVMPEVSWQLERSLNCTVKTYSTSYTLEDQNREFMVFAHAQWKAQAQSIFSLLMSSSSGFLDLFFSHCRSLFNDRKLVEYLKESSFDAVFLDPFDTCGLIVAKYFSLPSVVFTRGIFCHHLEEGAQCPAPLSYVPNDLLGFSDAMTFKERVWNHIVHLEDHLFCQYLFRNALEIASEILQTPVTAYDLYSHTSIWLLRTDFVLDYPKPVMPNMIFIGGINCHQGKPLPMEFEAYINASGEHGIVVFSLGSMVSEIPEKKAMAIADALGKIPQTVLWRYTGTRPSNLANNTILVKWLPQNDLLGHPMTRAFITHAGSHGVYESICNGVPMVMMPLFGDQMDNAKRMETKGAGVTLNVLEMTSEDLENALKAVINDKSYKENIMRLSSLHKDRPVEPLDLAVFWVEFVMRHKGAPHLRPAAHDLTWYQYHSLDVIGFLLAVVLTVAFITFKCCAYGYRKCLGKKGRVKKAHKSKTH
Source text: as §1, §2
To determine the inhibition kinetic type and parameters (K i), the reaction velocity (V) was determined at multiple concentrations of maidong's components and 4-MU (or TFP). Dixon plot and Lineweaver-Burk plot were used to fit the data. The inhibition kinetic type was evaluated through determining the intersection point in the Dixon and Lineweaver-Burk plots.
K m value is the substrate concentration in which the velocity reached half of the maximum velocity (V max) of the reaction. K i value is the inhibition constant.

UGT2B4 = target: T3, UGT2B4 (Homo sapiens, UniProt P06133); experiment: Recombinant UGT2B4-catalyzed 4-MU glucuronidation inhibition; settings: pH 7.4, probe 4-methylumbelliferone (4-MU), UGT2B4, 100 μM of compound, 4-MU substrate, read-out: residual activity
T3 construct: purchased BD Gentest Corp. (Woburn, MA, USA); host or cells: baculovirus-infected insect cells
T3 sequence (P06133 24-528): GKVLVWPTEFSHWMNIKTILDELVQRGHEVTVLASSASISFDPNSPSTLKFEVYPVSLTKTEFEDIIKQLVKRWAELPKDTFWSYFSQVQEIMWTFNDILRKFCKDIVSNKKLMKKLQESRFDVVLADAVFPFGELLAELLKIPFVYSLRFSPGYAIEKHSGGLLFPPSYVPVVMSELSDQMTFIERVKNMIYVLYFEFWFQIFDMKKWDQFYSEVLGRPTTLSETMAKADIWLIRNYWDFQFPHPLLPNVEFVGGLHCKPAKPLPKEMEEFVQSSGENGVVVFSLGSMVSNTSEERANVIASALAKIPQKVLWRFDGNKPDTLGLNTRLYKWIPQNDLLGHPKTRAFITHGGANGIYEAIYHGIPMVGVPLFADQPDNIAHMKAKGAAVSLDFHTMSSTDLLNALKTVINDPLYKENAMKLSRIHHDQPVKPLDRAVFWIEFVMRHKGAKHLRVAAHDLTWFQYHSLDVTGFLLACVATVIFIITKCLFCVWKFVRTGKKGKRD
Source text: as §1, §2

[1] = human, pH 7.4, probe 4-methylumbelliferone (4-MU)

| Compound | activity at 100 µM (UGT1A7) [%] | activity at 100 µM (UGT1A10; [1]) [%] | activity at 100 µM (UGT2B4) [%] | Ki (UGT1A10; UGT1A10-catalyzed 4-MU glucuronidation, read-out: inhibition kinetic parameter (Ki)) [µM] | inhibition type (UGT1A10; UGT1A10, Dixon and Lineweaver-Burk plots) | inhibition at 100 µM (UGT1A10; human, pH 7.4, probe 4-methylumbelliferone (4-MU), UGT1A10, at 100 μM, read-out: inhibition percent) [%] |
| --- | --- | --- | --- | --- | --- | --- |
| Cc1c(O)c(C)c2c(c1O)C(=O)[C@H](Cc1ccc3c(c1)OCO3)CO2 [MA, methylophiopogonanone A] | 57.5 ± 10.8 | 70 ± 9.3 | 71.1 ± 1.5 | – | – | – |
| COc1ccc(C[C@@H]2COc3c(C)c(O)c(C)c(O)c3C2=O)cc1 [MB, methylophiopogonanone B] | 83.4 ± 5.9 | 96.9 ± 7.3 | 73.2 ± 1.2 | – | – | – |
| C[C@@H]1CC[C@@]2(OC1)O[C@H]1C[C@H]3[C@@H]4CC=C5C[C@@H](O)C[C@@H](O[C@@H]6O[C@H](C)[C@H](O)[C@H](O[C@@H]7OC[C@@H](O)[C@H](O)[C@H]7O)[C@H]6O[C@@H]6O[C@@H](C)[C@H](O)[C@@H](O)[C@H]6O)[C@]5(C)[C@H]4CC[C@]3(C)[C@H]1[C@@H]2C [OD, ophiopogonin D] | 144 ± 8.7 | 26.5 ± 1.5 | 102 ± 2.6 | – | – | – |
| C[C@@H]1CC[C@@]2(OC1)O[C@H]1C[C@H]3[C@@H]4CC=C5C[C@@H](O[C@@H]6O[C@H](CO)[C@@H](O)[C@H](O[C@@H]7OC[C@@H](O)[C@H](O)[C@H]7O)[C@H]6O[C@@H]6O[C@@H](C)[C@H](O)[C@@H](O)[C@H]6O)CC[C@]5(C)[C@H]4CC[C@]3(C)[C@H]1[C@@H]2C [OD′, ophiopogonin D′] | 122 ± 1.3 | 19.8 ± 3.2 | 118 ± 21.8 | 9 | noncompetitively inhibited | 80.2 |
| CC1CCC2(OC1)OC1CC3C4CC=C5CC(O)CC(O)C5(C)C4CCC3(C)C1C2C (stereo not drawn) [RU, ruscorectal] | 52.4 ± 7.4 | 82 ± 5.2 | 88.4 ± 1.6 | – | – | – |
